From US8415469B2, “Compounds and methods for kinase modulation, and indications therefor” (Plexxikon Inc., priority 2005, dated 2013)

Tests used:
Format in all cases: biochemical
Gsk3β = Gsk3β (Homo sapiens, UniProt P49841); assay: AlphaScreen kinase assay, Gsk3β; conditions: read-out: IC50, activity toward kinase Gsk3β
In short: (§1)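 AlphaScreen, biotin-peptide substrate; streptavidin donor/anti-phospho acceptor beads; decreased emission = inhibition. Cpds 20 mM DMSO stock, 1:3 x 8 conc.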

Kdr = biological target: T1, Kdr (Homo sapiens, UniProt P35968); assay: Z'-Lyte FRET kinase assay (Invitrogen), Kdr; conditions: read-out: IC50, activity toward kinase Kdr
T1 construct: purchased Invitrogen (assay run by Invitrogen)

Stk6 = biological target: T2, Stk6 (Homo sapiens, UniProt O14965); assay: Z'-Lyte FRET kinase assay (Invitrogen), Stk6; conditions: read-out: IC50, activity toward kinase Stk6
T2 construct: purchased Invitrogen (Carlsbad, Calif.), screening service
T2 sequence (O14965 1-403): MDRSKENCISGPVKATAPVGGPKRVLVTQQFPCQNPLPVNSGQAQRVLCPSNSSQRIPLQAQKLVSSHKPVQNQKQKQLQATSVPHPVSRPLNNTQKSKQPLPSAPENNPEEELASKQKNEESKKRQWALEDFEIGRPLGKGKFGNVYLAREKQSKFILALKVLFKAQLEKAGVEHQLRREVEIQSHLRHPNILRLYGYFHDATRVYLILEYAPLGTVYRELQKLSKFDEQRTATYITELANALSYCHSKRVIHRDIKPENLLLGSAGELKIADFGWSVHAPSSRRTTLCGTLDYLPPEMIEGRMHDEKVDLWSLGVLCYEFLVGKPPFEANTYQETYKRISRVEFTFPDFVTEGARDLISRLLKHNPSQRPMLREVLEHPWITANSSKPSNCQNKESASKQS

MAPKAPK2 = biological target: T3, MAPKAPK2 (Homo sapiens, UniProt P49137); assay: Z'-Lyte FRET kinase assay (Invitrogen), MAPKAPK2; conditions: read-out: IC50, activity toward kinase MAPKAPK2
T3 construct: purchased Invitrogen (assay run by Invitrogen)
T3 sequence (P49137 whole entry): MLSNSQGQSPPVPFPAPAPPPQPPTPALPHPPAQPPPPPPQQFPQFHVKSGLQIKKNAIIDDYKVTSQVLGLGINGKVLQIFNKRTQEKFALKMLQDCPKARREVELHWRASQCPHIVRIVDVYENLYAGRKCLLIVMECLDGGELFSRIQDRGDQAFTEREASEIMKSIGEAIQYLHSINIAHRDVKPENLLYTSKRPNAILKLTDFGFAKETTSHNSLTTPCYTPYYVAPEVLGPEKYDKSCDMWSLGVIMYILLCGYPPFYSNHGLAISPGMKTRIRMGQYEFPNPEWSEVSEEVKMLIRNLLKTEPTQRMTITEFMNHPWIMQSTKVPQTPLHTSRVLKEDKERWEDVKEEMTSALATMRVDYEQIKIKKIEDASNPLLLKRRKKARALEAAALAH
Excerpt: The effect of potential modulators of kinase activity can be measured in a variety of different assays known in the art. For example, direct radiometric, indirect FRET or AlphaScreen assays may be used to assess the level of phosphorylation of a substrate in the presence of test compounds in order to determine the inhibitory affect of the compound on the kinase. Invitrogen (Carlsbad, Calif.) uses a FRET based assay for Btk, EGFR, EphB2, Flt3, lrak4, Kdr, MAP2K1, MAPKAPK2, PDGFRB, PKC theta, Stk6 and Yes. For these assays, compounds of the invention were screened by Invitrogen using Z′-Lyte™ kinase assay.
Briefly, the Invitrogen kinase assay involves use of a specific peptide substrate optimized for each kinase, containing a fluorophore at each end that make up the FRET pair. The peptide sensitivity to proteolytic cleavage depends on phosphorylation of the peptide. Non-phosphorylated peptide is cleaved by a protease while peptide phosphorylated by the kinase is not cleaved. Cleavage of the peptide disrupts the FRET between the donor (coumarin) and acceptor (fluorescein) fluorophores, resulting in an increase in the ratio of donor emission to acceptor emission. The emission ratio of coumarin to fluorescein is used to assess the reaction progress. The extent of phosphorylation is determined from the emission ratio, which is low when the kinase is active (phosphorylated peptide is not cleaved, FRET pair connected) or higher for inhibited kinase (non-phosphorylated peptide is cleaved, FRET pair separated). Thus, the assay involves a kinase reaction in the presence of varying concentrations of a given compound, a development reaction with site specific protease, and detection of the fluorescent emission ratio of coumarin and fluorscein. […] Reaction conditions for each kinase are determined to provide optimal reaction times, incubation temperature, kinase and ATP concentrations. Test samples are made up in 1× kinase buffer (50 mM HEPES pH 7.5, 50 mM MgCl2, 5 mM EGTA, 0.05% BRIJ-35) and compound at desired concentration prepared in DMSO such that the final DMSO is 1%. […] Typically, assay plates are prepared to 10 μl final volume per sample, adding 2.5 μl of compound at 4× the desired concentration in 4% DMSO (serial dilution of compound provides concentration curve), 5 μl of the desired kinase mixed with Z′-LYTE™ peptide substrate (2× in 2× kinase buffer, final peptide at 2 μM), and 2.5 μl of 4×ATP solution. All kinase except for MAP2K1 were at 10 μM ATP in the kinase reaction, while MAP2K1 was at 100 μM. Samples are mixed and the kinase reaction is incubated 1 hour at room temperature, after which 5 μl of development solution is added and mixed. After incubation for another 1 hour at room temperature, 5 μl of stop reagent is added to each sample and mixed. The fluorescence signals are measured to determine the emission ratio.

MAP4K4 = MAP4K4 (Homo sapiens, UniProt O95819); assay: AlphaScreen kinase assay, MAP4K4; conditions: read-out: IC50, activity toward kinase MAP4K4
Sequence of MAP4K4 (O95819 whole entry): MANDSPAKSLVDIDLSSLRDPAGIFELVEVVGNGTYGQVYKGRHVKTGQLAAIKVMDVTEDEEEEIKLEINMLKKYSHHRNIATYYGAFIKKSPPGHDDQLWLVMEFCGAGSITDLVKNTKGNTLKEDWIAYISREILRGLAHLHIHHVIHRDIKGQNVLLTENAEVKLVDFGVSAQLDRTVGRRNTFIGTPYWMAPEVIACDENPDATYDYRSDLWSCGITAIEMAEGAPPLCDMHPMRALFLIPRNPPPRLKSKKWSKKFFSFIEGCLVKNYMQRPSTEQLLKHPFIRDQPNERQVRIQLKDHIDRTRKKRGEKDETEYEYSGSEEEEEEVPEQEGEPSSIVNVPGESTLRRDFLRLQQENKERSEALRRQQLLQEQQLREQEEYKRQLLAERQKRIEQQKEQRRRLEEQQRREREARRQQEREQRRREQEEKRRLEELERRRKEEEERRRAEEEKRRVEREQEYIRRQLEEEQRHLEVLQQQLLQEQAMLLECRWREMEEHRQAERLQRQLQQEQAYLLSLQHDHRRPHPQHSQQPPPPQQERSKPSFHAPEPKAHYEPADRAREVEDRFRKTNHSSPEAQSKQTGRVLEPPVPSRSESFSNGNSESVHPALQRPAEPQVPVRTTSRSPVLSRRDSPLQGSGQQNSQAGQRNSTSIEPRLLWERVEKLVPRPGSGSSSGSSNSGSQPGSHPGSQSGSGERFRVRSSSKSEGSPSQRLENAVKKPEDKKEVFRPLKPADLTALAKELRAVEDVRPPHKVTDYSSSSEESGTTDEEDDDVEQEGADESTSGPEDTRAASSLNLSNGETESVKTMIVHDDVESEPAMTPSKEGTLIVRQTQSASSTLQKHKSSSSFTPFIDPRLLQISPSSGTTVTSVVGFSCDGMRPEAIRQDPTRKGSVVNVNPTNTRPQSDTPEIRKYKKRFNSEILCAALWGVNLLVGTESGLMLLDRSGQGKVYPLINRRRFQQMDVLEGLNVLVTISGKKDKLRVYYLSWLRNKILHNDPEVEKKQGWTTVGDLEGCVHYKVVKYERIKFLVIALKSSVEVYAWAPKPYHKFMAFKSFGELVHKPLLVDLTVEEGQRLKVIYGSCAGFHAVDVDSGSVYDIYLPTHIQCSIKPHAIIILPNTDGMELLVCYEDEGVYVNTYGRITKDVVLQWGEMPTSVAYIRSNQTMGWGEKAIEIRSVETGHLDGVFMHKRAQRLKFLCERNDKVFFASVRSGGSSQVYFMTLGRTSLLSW

Syk = Syk (Homo sapiens, UniProt P43405); assay: AlphaScreen kinase assay, Syk; conditions: read-out: IC50, activity toward kinase Syk
Excerpt: (§2) AlphaScreen assay was used to screen additional kinases. The assay is similarly dependent on the phosphorylation of a peptide substrate. In this assay, an antibody that recognizes phosphorylated substrate is bound to an acceptor bead. The peptide substrate is attached to biotin, which binds to a donor head that contains streptavidin. Thus phosphorylated substrate is bound by antibody and streptavidin, bringing the donor and acceptor heads into close proximity when kinase is not inhibited. The donor produces singlet oxygen which results in emission from the acceptor when they are in close proximity. Conversely, when kinase is inhibited, the donor and acceptor beads are not associated and the emission from the acceptor is reduced.
(§3) AlphaScreen assays were done using compounds dissolved in DMSO to a concentration of 20 mM. The compounds were diluted accordingly to the desired final concentrations in each sample well, using 1:3 serial dilution for a total of 8 concentration points.

ROCK1 = ROCK1 (Homo sapiens, UniProt Q13464); assay: AlphaScreen kinase assay, ROCK1; conditions: read-out: IC50, activity toward kinase ROCK1
Sequence of ROCK1 (Q13464 whole entry): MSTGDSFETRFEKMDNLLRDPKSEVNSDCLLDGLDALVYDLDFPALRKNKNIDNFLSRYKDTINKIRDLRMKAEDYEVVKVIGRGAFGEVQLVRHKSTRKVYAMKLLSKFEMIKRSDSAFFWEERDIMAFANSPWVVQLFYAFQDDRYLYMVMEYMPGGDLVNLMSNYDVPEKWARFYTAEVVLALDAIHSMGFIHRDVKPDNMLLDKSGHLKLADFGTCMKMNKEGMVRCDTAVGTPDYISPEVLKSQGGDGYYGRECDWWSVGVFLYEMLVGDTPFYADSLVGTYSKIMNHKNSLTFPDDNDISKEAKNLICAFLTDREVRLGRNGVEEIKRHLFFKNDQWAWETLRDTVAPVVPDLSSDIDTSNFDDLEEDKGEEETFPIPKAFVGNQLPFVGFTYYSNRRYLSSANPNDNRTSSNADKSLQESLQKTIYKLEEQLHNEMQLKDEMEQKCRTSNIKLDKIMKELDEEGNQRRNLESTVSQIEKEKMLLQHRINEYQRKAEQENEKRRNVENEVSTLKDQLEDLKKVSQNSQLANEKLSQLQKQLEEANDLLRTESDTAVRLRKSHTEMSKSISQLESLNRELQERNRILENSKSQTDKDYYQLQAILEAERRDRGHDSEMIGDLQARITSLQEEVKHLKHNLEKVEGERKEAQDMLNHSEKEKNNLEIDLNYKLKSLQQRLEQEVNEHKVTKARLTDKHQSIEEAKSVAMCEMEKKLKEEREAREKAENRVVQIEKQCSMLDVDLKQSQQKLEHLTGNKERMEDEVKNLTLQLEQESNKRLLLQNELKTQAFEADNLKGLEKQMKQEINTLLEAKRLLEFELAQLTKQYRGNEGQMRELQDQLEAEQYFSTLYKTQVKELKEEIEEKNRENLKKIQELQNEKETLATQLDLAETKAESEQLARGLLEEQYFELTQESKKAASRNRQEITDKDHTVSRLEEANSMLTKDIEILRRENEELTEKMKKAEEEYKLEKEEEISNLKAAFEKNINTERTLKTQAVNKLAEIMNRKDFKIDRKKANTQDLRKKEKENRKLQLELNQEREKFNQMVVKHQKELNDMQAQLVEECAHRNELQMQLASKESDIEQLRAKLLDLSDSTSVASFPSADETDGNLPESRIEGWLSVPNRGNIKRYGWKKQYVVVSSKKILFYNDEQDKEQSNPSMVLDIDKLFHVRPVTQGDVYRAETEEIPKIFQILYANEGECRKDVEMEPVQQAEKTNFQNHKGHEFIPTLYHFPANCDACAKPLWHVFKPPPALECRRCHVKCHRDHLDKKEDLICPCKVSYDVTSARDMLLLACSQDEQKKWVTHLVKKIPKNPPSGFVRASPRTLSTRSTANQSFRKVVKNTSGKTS
Excerpt: as §2, §3

IKK beta = biological target: T4, IKK beta (Homo sapiens, UniProt O14920); assay: AlphaScreen kinase assay, IKK beta; conditions: read-out: IC50, activity toward kinase IKK beta
T4 sequence (O14920 1-756): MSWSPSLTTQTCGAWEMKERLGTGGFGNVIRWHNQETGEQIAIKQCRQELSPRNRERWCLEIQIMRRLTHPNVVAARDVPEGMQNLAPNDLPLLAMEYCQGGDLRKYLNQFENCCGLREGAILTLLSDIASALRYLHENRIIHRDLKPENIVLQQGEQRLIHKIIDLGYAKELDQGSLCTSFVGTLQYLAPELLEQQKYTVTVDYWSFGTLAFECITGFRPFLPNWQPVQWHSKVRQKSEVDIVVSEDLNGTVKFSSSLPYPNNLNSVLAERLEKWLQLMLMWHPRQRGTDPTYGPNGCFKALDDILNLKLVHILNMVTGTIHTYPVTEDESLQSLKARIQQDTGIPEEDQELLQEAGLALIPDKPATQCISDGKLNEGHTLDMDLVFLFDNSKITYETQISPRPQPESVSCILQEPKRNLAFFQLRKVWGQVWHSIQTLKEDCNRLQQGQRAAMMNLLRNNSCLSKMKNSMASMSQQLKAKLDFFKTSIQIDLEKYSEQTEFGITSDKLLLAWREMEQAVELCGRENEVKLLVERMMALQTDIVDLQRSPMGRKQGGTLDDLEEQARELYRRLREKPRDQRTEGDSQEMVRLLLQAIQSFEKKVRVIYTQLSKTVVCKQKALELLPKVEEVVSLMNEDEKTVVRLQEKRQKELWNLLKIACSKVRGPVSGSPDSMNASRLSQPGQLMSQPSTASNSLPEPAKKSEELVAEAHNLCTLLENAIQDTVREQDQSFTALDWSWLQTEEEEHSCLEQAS

MAP2K1 = biological target: T5, MAP2K1 (Homo sapiens, UniProt Q02750); assay: Z'-Lyte FRET kinase assay (Invitrogen), MAP2K1; conditions: read-out: IC50, activity toward kinase MAP2K1
T5 construct: purchased Invitrogen (assay run by Invitrogen)
T5 sequence (Q02750 whole entry): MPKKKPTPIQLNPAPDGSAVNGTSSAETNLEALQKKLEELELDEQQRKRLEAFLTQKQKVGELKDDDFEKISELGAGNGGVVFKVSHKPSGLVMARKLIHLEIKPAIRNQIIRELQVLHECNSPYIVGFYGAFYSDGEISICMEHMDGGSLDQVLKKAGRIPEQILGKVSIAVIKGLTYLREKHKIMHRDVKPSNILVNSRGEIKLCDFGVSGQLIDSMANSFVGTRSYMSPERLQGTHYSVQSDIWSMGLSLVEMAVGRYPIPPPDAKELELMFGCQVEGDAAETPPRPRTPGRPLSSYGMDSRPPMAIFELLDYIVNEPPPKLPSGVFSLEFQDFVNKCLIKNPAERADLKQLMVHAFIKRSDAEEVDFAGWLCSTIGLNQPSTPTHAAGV

PKC theta = biological target: T6, PKC theta (Homo sapiens, UniProt Q04759); assay: Z'-Lyte FRET kinase assay (Invitrogen), PKC theta; conditions: read-out: IC50, activity toward kinase PKC theta
T6 construct: purchased Invitrogen (Carlsbad, Calif.), screening service
T6 sequence (Q04759 whole entry): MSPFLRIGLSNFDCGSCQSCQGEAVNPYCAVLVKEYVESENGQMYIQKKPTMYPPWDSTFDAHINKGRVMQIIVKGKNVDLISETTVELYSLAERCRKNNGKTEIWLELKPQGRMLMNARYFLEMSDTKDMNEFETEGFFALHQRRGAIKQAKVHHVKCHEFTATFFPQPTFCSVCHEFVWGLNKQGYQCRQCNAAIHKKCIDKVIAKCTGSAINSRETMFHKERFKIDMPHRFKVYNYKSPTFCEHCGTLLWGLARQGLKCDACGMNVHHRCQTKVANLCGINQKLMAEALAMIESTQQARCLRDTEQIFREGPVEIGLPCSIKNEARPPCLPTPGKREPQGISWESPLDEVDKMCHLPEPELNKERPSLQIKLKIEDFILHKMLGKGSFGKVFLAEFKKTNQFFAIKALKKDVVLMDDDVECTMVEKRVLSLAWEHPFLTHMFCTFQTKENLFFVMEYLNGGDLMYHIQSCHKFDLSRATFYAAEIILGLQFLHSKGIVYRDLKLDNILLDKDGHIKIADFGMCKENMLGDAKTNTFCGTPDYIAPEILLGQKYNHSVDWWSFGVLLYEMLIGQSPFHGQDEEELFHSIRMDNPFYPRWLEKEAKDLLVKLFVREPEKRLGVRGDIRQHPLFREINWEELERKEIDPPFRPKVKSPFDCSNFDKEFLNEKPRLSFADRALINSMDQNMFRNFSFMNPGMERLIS
In short: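 Serially diluted compound (final 1% DMSO) incubated 1 h at room temperature with kinase, 2 μM FRET peptide and 10 μM ATP in pH 7.5 HEPES buffer. Site-specific protease then cleaves unphosphorylated peptide (1 h); inhibition read as increased coumarin-to-fluorescein emission ratio.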

Akt3 = Akt3 (Homo sapiens, UniProt Q9Y243); assay: AlphaScreen kinase assay, Akt3; conditions: read-out: IC50, activity toward kinase Akt3
Sequence of Akt3 (Q9Y243 whole entry): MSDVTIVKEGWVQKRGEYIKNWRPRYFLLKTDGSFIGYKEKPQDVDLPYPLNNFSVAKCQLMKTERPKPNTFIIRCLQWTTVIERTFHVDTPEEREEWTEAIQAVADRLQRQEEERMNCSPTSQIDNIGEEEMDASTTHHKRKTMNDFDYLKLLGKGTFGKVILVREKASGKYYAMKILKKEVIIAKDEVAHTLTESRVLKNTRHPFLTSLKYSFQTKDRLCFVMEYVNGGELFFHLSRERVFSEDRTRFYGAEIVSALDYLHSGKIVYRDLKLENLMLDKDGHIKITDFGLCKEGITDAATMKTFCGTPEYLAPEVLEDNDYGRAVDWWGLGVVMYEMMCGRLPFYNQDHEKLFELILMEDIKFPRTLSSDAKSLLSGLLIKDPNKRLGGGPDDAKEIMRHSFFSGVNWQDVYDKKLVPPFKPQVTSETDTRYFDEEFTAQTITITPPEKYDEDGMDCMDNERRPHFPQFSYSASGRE
In short: as §1

Sequence of Gsk3β (P49841 whole entry): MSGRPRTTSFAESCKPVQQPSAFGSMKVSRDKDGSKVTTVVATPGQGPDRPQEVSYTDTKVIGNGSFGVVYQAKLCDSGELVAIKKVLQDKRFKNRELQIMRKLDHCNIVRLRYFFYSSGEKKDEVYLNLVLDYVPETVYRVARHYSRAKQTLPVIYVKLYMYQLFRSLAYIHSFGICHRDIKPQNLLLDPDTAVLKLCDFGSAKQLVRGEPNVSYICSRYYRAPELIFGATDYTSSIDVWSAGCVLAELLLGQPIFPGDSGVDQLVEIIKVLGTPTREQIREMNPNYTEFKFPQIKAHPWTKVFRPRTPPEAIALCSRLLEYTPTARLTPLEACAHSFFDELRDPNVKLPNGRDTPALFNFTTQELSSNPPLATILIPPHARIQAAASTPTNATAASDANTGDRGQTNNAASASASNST

- IC50 (Gsk3β): ≤ 10 µM
- IC50 (Kdr): ≤ 10 µM
- IC50 (Stk6): ≤ 10 µM
- IC50 (MAPKAPK2): ≤ 10 µM
- IC50 (MAP4K4): ≤ 10 µM
- IC50 (Syk): ≤ 10 µM
- IC50 (ROCK1): ≤ 10 µM
- IC50 (IKK beta): ≤ 10 µM
- IC50 (MAP2K1): ≤ 10 µM
- IC50 (PKC theta): ≤ 10 µM
- IC50 (Akt3): ≤ 10 µM
Compound: OCc1cccc(-c2ccnc3[nH]cc(Sc4ccccn4)c23)c1 [Compound P-0057]
